Assay results: ChEMBL document CHEMBL3886166, “Heterocyclic compounds” (2015)

Columns and labels:
[1] = biological target: T1, Transient receptor potential cation channel subfamily V member 1 (Homo sapiens, UniProt Q8NER1); assay: pH-Based Assay: Two days prior to performing this assay, cells are seeded on poly-D-lysine-coated 96-well clear-bottom black plates (commercially available from Becton-Dickinson) at 75,000 cells/well in growth media containing 5 uM PonA (commercially available from Invitrogen) to induce expression of TRPV1. On the day of the assay, the plates are washed with 0.2 mL 1x Hank's Balanced Salt Solution (commercially available from Life Technologies) containing 1.6 mM CaCl2 and 20 mM HEPES, pH 7.4 (wash buffer), and loaded using 0.1 mL of wash buffer containing Fluo-4 (3 uM final concentration, commercially available from Molecular Probes). After 1 h, the cells are washed twice with 0.2 mL wash buffer and resuspended in 0.05 mL 1x Hank's Balanced Salt Solution (commercially available from Life Technologies) containing 3.5 mM CaCl2 and 10 mM Citrate, pH 7.4 (assay buffer). Plates are then transferred to a FLIPR for assay.
[2] = biological target: T1, Transient receptor potential cation channel subfamily V member 1; assay: Capsaicin-Based Assay: Two days prior to performing this assay, cells are seeded in poly-D-lysine-coated 96-well clear-bottom black plates (50,000 cells/well) in growth media containing 5 uM PonA (commercially available from Invitrogen) to induce expression of TRPV1. On the day of the assay, the plates are washed with 0.2 mL 1x Hank's Balanced Salt Solution (commercially available from Life Technologies) containing 1 mM CaCl2 and 20 mM HEPES, pH 7.4, and cells are loaded using 0.1 mL of wash buffer containing Fluo-4 (3 uM final). After one hour, the cells are washed twice with 0.2 mL of wash buffer and resuspended in 0.1 mL of wash buffer. The plates are transferred to a FLIPR for assay. 50 uL of test compound diluted with assay buffer (1x Hank's Balanced Salt Solution containing 1 mM CaCl2 and 20 mM HEPES, pH 7.4) are added to the cell plates and incubated for 2 min. The final concentration of the compound is adjusted to range from about 50 picoM to about 3 uM.

T1 sequence (Q8NER1 whole entry): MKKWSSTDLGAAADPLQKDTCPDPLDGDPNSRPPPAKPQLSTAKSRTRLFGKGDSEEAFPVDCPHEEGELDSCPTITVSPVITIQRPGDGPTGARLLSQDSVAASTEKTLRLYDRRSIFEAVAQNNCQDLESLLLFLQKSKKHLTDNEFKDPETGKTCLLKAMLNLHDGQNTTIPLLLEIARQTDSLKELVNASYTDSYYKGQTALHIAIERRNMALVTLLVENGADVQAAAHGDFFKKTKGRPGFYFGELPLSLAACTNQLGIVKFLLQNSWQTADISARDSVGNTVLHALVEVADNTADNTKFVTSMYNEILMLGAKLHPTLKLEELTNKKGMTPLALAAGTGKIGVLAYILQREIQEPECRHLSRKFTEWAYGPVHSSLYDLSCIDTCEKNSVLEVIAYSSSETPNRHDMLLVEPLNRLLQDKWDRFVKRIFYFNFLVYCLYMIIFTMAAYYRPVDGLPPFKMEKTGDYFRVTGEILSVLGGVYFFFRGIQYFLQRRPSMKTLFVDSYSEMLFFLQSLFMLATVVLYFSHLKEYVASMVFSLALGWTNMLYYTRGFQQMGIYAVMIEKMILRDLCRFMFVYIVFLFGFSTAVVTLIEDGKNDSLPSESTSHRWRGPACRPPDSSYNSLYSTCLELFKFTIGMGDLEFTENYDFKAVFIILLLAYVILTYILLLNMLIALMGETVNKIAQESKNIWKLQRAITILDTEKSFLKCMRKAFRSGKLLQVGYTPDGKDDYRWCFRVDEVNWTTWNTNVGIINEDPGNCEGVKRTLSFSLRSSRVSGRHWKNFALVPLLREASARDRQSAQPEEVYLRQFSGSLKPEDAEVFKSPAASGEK

SMILES | IC50 [1] [µM] | IC50 [2] [µM]
Cc1cc(NC(=O)N2CC=C(c3ncc(-c4nnc(CCO)o4)cc3Cl)CC2)ccc1OC(F)(F)F | < 0.1 | 
O=C(Nc1ccc(C(F)(F)F)c(Cl)c1)N1CCC(F)(c2ncc(-c3nc(CO)no3)cc2Cl)CC1 | < 0.1 | 
Cc1cc(NC(=O)N2CCN(c3ncc(-c4nnc(CO)o4)cc3Cl)CC2)ccc1C(F)(F)F | < 0.1 | 
Cc1cc(NC(=O)N2CC=C(c3ncc(-c4nc(CO)no4)cc3Cl)CC2)ccc1C(F)(F)F | < 0.1 | 
Cc1noc(-c2cnc(C3=CCN(C(=O)Nc4ccc(OC(F)(F)F)cc4)CC3)c(Cl)c2)n1 | < 0.1 | 
O=C(Nc1ccc(C(F)(F)F)cn1)N1CCC(F)(c2ncc(-c3noc(CO)n3)cc2Cl)CC1 | < 0.1 | 
O=C(Nc1ccc(C(F)(F)F)c(Cl)c1)N1CC=C(c2ncc(-c3cc(CO)on3)cc2Cl)CC1 | < 0.1 | 
Cc1cc(NC(=O)N2CCN(c3ncc(-c4nc(CO)no4)cc3Cl)CC2)ccc1C(F)(F)F | < 0.1 | 
O=C(Nc1ccc(C(F)(F)F)c(Cl)c1)N1CC=C(c2ncc(-c3nnc(CO)o3)cc2Cl)CC1 |  | < 0.1
O=C(Nc1ccc(C(F)(F)F)cc1)N1CC=C(c2ncc(-c3nnc(CO)o3)cc2Cl)CC1 |  | < 0.1
Cc1noc(-c2cnc(C3=CCN(C(=O)Nc4ccc(C(F)(F)F)cc4)CC3)c(Cl)c2)n1 | < 0.1 | 
O=C(Nc1ccc(C(F)(F)F)cn1)N1CC=C(c2ncc(-c3nnc(CO)o3)cc2Cl)CC1 |  | < 0.1
Cc1nnc(-c2cnc(C3=CCN(C(=O)Nc4ccc(C(F)(F)F)cc4)CC3)c(Cl)c2)o1 |  | < 0.1
O=C(Nc1ccc(C(F)(F)F)c(Cl)c1)N1CC=C(c2ncc(-c3noc(CO)n3)cc2Cl)CC1 |  | < 0.1
Cc1cc(NC(=O)N2CC=C(c3ncc(-c4nnc(CCO)o4)cc3Cl)CC2)ccc1C(F)(F)F | < 0.1 | 
O=C(Nc1ccc(C(F)(F)F)cn1)N1CC=C(c2ncc(-c3nc(CO)no3)cc2F)CC1 |  | < 0.1
Cc1nnc(-c2cnc(C3=CCN(C(=O)Nc4ccc(OC(F)(F)F)cc4)CC3)c(Cl)c2)o1 |  | < 0.1
O=C(Nc1ccc(C(F)(F)F)cn1)N1CC=C(c2ncc(-c3cc(CO)on3)cc2Cl)CC1 | < 0.1 | 
Cc1cc(NC(=O)N2CC=C(c3ncc(-c4nc(CO)no4)cc3F)CC2)ccc1C(F)(F)F |  | < 0.1
O=C(Nc1ccc(C(F)(F)F)cn1)N1CC=C(c2ccc(-c3nnc(CO)o3)cc2Cl)CC1 | < 0.1 | 
O=C(C#Cc1ccc(-c2nnc(CO)o2)cc1Cl)Nc1ccc(C(F)(F)F)cc1 |  | < 0.1
Cc1cc(NC(=O)N2CCC(F)(c3ncc(-c4ocnc4CO)cc3Cl)CC2)ccc1C(F)(F)F |  | < 0.1

Other lines, results leading:

IC50 [1] [µM] | IC50 [2] [µM] | SMILES
< 0.1 |  | O=C(Nc1ccc(C(F)(F)F)c(Cl)c1)N1CCC(F)(c2ncc(-c3noc(CO)n3)cc2Cl)CC1
< 0.1 |  | Cc1nnc(-c2cnc(C3=CCN(C(=O)Nc4ccc(C(F)(F)F)cn4)CC3)c(Cl)c2)o1
< 0.1 |  | O=C(Nc1ccc(C(F)(F)F)cn1)N1CC=C(c2ncc(-c3cnc(CO)o3)cc2Cl)CC1
< 0.1 |  | O=C(Nc1ccc(C(F)(F)F)c(Cl)c1)N1CCN(c2ncc(-c3nnc(CO)o3)cc2Cl)CC1
 | < 0.1 | O=C(C#Cc1ccc(-c2nnc(CO)o2)cc1Cl)Nc1ccc(C(F)(F)F)c(Cl)c1
< 0.1 |  | O=C(Nc1ccc(C(F)(F)F)c(Cl)c1)N1CC=C(c2ncc(-c3ocnc3CO)cc2Cl)CC1
 | < 0.1 | O=C(Nc1ccc(C(F)(F)F)cn1)N1CC=C(c2ncc(-c3noc(CO)n3)cc2Cl)CC1
 | < 0.1 | O=C(Nc1ccc(C(F)(F)F)cn1)N1CC=C(c2ncc(-c3nc(CO)no3)cc2Cl)CC1
< 0.1 |  | O=C(Nc1ccc(C(F)(F)F)cn1)N1CCN(c2ncc(-c3nc(CO)no3)cc2Cl)CC1
< 0.1 |  | Cc1cc(NC(=O)N2CCC(F)(c3ncc(-c4nc(CO)no4)cc3Cl)CC2)ccc1C(F)(F)F
 | < 0.1 | O=C(Nc1ccc(C(F)(F)F)cn1)N1CCN(c2ncc(-c3nnc(CO)o3)cc2Cl)CC1
